One experiment deals with SB.msgc-1. Kind of experiment: AC50 for growth inhibition (viability) (log10 M); higher = less potent. The note with it: SB.msgc-1 (sporadic gastric cancer). The procedure, abridged: (§1)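 Dosing used a pintool to add 23 nL compound in DMSO to 1536 wells, each with 500 hereditary or sporadic patient-derived gastric cancer cells, across 11 threefold dilutions starting at a final 46 μM. Viability after 48 h was measured by CellTiter-Glo luminescence on a ViewLux. The log half-maximal activity concentration derives from a four-parameter fit of that viability normalised to DMSO, limited to high-quality curve classes.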

The test system of another experiment is SB.mhdgc-1. The experiment is described as above. The note with it: SB.mhdgc-1 (hereditary c.1380delA CDH1 gastric cancer). The procedure, abridged:
as §1

Each structure is given as a SMILES string. Where a name gives a salt, the structure may show the parent alone.

Consider `CN(C)c1ccc2nc3ccc(N(C)C)cc3[s+]c2c1` [Methylene blue], for which the “AC50 for growth inhibition (log10 M)” value is -5.33 in the experiment on SB.msgc-1 and -5.83 in the experiment with SB.mhdgc-1.

`CC(C)c1cc(C(=O)N2Cc3ccc(CN4CCN(C)CC4)cc3C2)c(O)cc1O`: the “AC50 for growth inhibition (log10 M)” value in the experiment on SB.msgc-1 is -6.78; with SB.mhdgc-1, -6.53.

With `CCCCN(CCCC)CCC(O)c1cc2c(Cl)cc(Cl)cc2c2cc(C(F)(F)F)ccc12` (stereo not drawn) [Halofantrine], the entries for the “AC50 for growth inhibition (log10 M)” value with SB.msgc-1 and with SB.mhdgc-1 were -4.73 and -4.68, respectively.

As for `Cc1nc(N)ncc1-c1nc(N2CCOCC2)c2sc(C(C)(C)O)cc2n1` [GNE-490], the figures for the “AC50 for growth inhibition (log10 M)” value in the experiment on SB.msgc-1 and with SB.mhdgc-1 were -7.43 and -6.38, respectively.

For the compound `CC(C)(O)Cn1c(NC(=O)c2ccc(-c3cn[nH]c3)s2)nc2cc(CN3CCOCC3)ccc21`, the “AC50 for growth inhibition (log10 M)” value in the experiment with SB.msgc-1 is -5.63; with SB.mhdgc-1, -5.83.

For `NC(=O)Nc1sc(-c2ccc(F)cc2)cc1C(N)=O` [TPCA-1], the “AC50 for growth inhibition (log10 M)” value with SB.msgc-1 was -5.48; with SB.mhdgc-1, -5.93.

`CC(NCc1ccc2c(c1)[nH]/c(=N\C(=O)c1ccc(-c3cn[nH]c3)s1)n2CC(C)(C)O)C(C)(C)C` (stereo not drawn): the “AC50 for growth inhibition (log10 M)” value is -6.18 in the experiment on SB.msgc-1 and -5.43 in the experiment on SB.mhdgc-1.

For the compound `Cc1cccc(/C=N/Nc2cc(N3CCOCC3)nc(OCCc3ccccn3)n2)c1` [Apilimod], the entries for the “AC50 for growth inhibition (log10 M)” value in the experiment with SB.msgc-1 and in the experiment on SB.mhdgc-1 were -4.78 and -4.88, respectively.

Take `COc1ccc(Cc2nccc3cc(OC)c(OC)cc23)cc1OC` [Papaverine hydrochloride]: the results for the “AC50 for growth inhibition (log10 M)” value in the experiment on SB.msgc-1 and in the experiment on SB.mhdgc-1 were -4.73 and -6.88, respectively.

In the case of `Nc1nc(F)nc2c1ncn2[C@@H]1O[C@H](CO)[C@@H](O)[C@H]1O` [2-Fluoroadenosine], the “AC50 for growth inhibition (log10 M)” value with SB.msgc-1 and in the experiment with SB.mhdgc-1 was -6.23 each time.

For the compound `ClC1=CC=C(CCCOC/2=N/NC(=O)C(=C2NCC3=CN=CC=C3)/Br)C=C1` [Parogrelil], the “AC50 for growth inhibition (log10 M)” value with SB.msgc-1 was -4.83; in the experiment on SB.mhdgc-1 it was -5.13.

Consider `FC1=C(C=C(C\C2=N\NC(=O)C3=C2C=CC=C3)C=C1)C(=O)N4CCN(CC4)C(=O)C5CC5` [Olaparib], for which the figures for the “AC50 for growth inhibition (log10 M)” value in the experiment with SB.msgc-1 and with SB.mhdgc-1 were -4.78 and -5.48, respectively.

On to `O=C(Nc1cccc(Nc2ncc(Br)c(NCCc3cnc[nH]3)n2)c1)N1CCCC1` [BX-912], for which the “AC50 for growth inhibition (log10 M)” value in the experiment with SB.msgc-1 was -4.78; in the experiment on SB.mhdgc-1, -4.98.

As for `CN1/C=C(\N=C(NC2=CC=C(C=C2)C(=O)N3CCOCC3)/C1=O)/C4=C(C)C(=CC=C4)NC(=O)C5=CC=C(C=C5)C(C)(C)C` [CGI-1746], the “AC50 for growth inhibition (log10 M)” value with SB.msgc-1 was -5.23; in the experiment with SB.mhdgc-1 it was -4.63.

As for `CC\1=C(C(\N=C(/N1)C2=CC(=NC=C2)Cl)C3=C(F)C=C(Cl)C=C3)/C(=O)NC4=C(F)C=C5[NH]N=CC5=C4` (stereo not drawn) [GSK-25], the “AC50 for growth inhibition (log10 M)” value is -4.63 in the experiment on SB.msgc-1 and -5.08 in the experiment with SB.mhdgc-1.

Regarding `N#C/C(=C1/Nc2ccccc2S1)c1ccnc(OCc2ccc(CN3CCOCC3)cc2)n1`, the “AC50 for growth inhibition (log10 M)” value in the experiment with SB.msgc-1 was -5.98; in the experiment with SB.mhdgc-1 it was -7.43.

For the compound `O=C(Nc1c[nH]nc1-c1nc2cc(CN3CCOCC3)ccc2[nH]1)NC1CC1` [AT-9283], the entries for the “AC50 for growth inhibition (log10 M)” value in the experiment on SB.msgc-1 and in the experiment with SB.mhdgc-1 were -5.38 and -6.18, respectively.

With `CO[C@H]1/C=C\C=C(\C)C(=O)NC2=CC(=O)C(NCCN(C)C)=C(C[C@@H](C)C[C@H](OC)[C@H](O)[C@@H](C)/C=C(/C)[C@@H]1OC(N)=O)C2=O` [Alvespimycin hydrochloride], the figures for the “AC50 for growth inhibition (log10 M)” value in the experiment on SB.msgc-1 and in the experiment with SB.mhdgc-1 were -6.83 and -7.38, respectively.

Consider `CN1CCc2c(c3ccccc3n2Cc2ccc(C(=O)NO)cc2)C1` [Tubastatin A], for which the “AC50 for growth inhibition (log10 M)” value in the experiment on SB.msgc-1 is -4.68; in the experiment with SB.mhdgc-1, -4.63.

The values are drawn from the supplement of paper PMC5412046.
